According to patent US8134015B2, “Compound inhibiting in vivo phosphorous transport and medicine containing the same” (Kyowa Hakko Kirin Co., Ltd., priority 2003, dated 2012):
Structures can show the parent of a compound that is named as a salt.

Target: T1, rat NaPi-2b (Rattus norvegicus, UniProt Q9JJ09)
T1 construct: expressed in transfected cells; host or cells: Xenopus oocytes injected with cRNA
T1 sequence (Q9JJ09 1-695): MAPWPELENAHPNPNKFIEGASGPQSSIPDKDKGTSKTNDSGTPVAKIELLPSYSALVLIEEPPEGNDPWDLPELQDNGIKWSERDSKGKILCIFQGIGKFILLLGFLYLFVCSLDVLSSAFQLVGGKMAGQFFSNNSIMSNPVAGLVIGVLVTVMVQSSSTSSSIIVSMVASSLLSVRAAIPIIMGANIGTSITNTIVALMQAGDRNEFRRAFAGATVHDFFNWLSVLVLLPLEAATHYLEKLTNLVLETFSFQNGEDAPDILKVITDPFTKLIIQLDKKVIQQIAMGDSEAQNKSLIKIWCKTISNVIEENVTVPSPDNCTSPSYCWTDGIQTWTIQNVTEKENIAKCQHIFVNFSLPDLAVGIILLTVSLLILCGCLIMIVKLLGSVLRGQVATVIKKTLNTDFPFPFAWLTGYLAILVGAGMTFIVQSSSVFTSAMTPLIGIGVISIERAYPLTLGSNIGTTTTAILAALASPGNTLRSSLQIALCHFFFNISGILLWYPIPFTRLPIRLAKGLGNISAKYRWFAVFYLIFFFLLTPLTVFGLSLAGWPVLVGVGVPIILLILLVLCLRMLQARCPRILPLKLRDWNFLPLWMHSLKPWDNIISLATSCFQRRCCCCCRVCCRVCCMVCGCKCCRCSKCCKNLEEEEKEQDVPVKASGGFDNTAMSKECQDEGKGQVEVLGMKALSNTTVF
Test: Sodium-dependent phosphate uptake of Xenopus oocytes which expressed NaPi-2b (32P)
Type: cell-based
Conditions: for IC50: Xenopus oocytes expressing rat NaPi-2b, 32P radioactive phosphorus, read-out: IC50 (phosphate uptake inhibitory activity); for inhibition at 300 µM: phosphate uptake, oocytes expressing rat NaPi-2b, determined from inhibition curve
In short: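 Oocytes injected with rat NaPi-2b cRNA, cultured 2 d, then 32P uptake measured with compound. Values: % inhibition at 300 and 100 μM, both from one inhibition curve.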

SMILES	IC50	inhibition at 300 µM
COc1ccccc1/C=N/NC(=O)c1ccccc1NC(=O)c1ccc(OC)c(OC)c1 [Compound 4, 3,4-Dimethoxy-N-[2-(2-methoxy-benzylidene-hydrazinocarbonyl)-phenyl]-benzamide]	79.9 µM	–
Cc1ccc(/C=N/NC(=O)c2scc(C)c2NC(=O)c2cccc(CSc3nc[nH]n3)c2)cc1C [Compound 523, N-[2-(3,4-Dimethyl-benzylidene-hydrazinocarbonyl)-4-methyl-thiophen-3-yl]-3-(1H-[1,2,4]triazol-3-ylsulfanylmethyl)-benzamide]	–	50.1%
CCN(CC)CCNCc1ccc(C(=O)Nc2ccc(Br)cc2C(=O)N/N=C/c2ccc(C)c(C)c2)cc1 [Compound 292, N-[4-Bromo-2-(3,4-dimethyl-benzylidene-hydrazinocarbonyl)-phenyl]-4-[(2-diethylamino-ethylamino)-methyl]-benzamide]	3.5 µM	–
Cc1ccc(/C=N/NC(=O)c2cc(OCCN3CCCCC3)ccc2NC(=O)c2cccc(CSCCO)c2)cc1 [Compound 1042, 3-(2-Hydroxy-ethylsulfanylmethyl)-N-[2-(4-methyl-benzylidene-hydrazinocarbonyl)-4-(2-piperidin-1-yl-ethoxy)-phenyl]-benzamide]	14.7 µM	–
COc1ccc(C(=O)Nc2ccccc2C(=O)N/N=C/c2ccc(Cl)c(C(F)(F)F)c2)cc1 [Compound 90, N-[2-(4-Chloro-3-trifluoromethyl-benzylidene-hydrazinocarbonyl)-phenyl]-4-methoxy-benzamide]	3.42 µM	–
CCN(CCO)Cc1ccc(C(=O)Nc2ccc(Cl)cc2C(=O)N/N=C/c2ccc(OC)cc2)cc1 [Compound 439, N-[4-Chloro-2-(4-methoxy-benzylidene-hydrazinocarbonyl)-phenyl]-4-{[ethyl-(2-hydroxy-ethyl)-amino]-methyl}-benzamide]	28.7 µM	–
Cc1ccc(/C=N/NC(=O)c2c(C)csc2NC(=O)c2cccc(CN3CCC(N4CCCCC4)CC3)c2)cc1 [Compound 570, 3-[1,4′]Bipiperidinyl-1′-ylmethyl-N-[4-methyl-3-(4-methyl-benzylidene-hydrazinocarbonyl)-thiophen-2-yl]-benzamide]	6.04 µM	–
COc1ccc(C(=O)Nc2ccc(C)cc2C(=O)N/N=C/c2ccc(F)cc2)cc1OC [Compound 147, N-[2-(4-Fluoro-benzylidene-hydrazinocarbonyl)-4-methyl-phenyl]-3,4-dimethoxy-benzamide]	7.68 µM	–
CCN(CC)CCN(C)Cc1cccc(C(=O)Nc2ccc(OCCOC)cc2C(=O)N/N=C/c2ccc(C)cc2)c1 [Compound 1026, 3-{[(2-Diethylamino-ethyl)-methyl-amino]-methyl}-N-[4-(2-methoxy-ethoxy)-2-(4-methyl-benzylidene-hydrazinocarbonyl)-phenyl]-benzamide]	3.86 µM	–
COc1cc(/C=N/NC(=O)c2ccccc2NC(=O)c2ccc(OC)c(OC)c2)ccc1O [Compound 11, N-[2-(4-Hydroxy-3-methoxy-benzylidene-hydrazinocarbonyl)-phenyl]-3,4-dimethoxy-benzamide]	8.21 µM	–
CCN(CC)CCN(C)Cc1cccc(C(=O)Nc2ccc(OC)cc2C(=O)N/N=C/c2cccc(F)c2)c1 [Compound 1022, 3-{[(2-Diethylamino-ethyl)-methyl-amino]-methyl}-N-[2-(3-fluoro-benzylidene-hydrazinocarbonyl)-4-methoxy-phenyl]-benzamide]	3.23 µM	–
O=C(Nc1ccc(Br)cc1C(=O)N/N=C/c1cccc(F)c1)c1ccc(CNCCCN(CCO)CCO)cc1 [Compound 301, 4-({3-[Bis-(2-hydroxy-ethyl)-amino]-propylamino}-methyl)-N-[4-bromo-2-(3-fluoro-benzylidene-hydrazinocarbonyl)-phenyl]-benzamide]	15.2 µM	–
C/C(=N\NC(=O)c1ccccc1NC(=O)c1ccncc1)c1cccc(C)c1 [Compound 249, N-[2-(1-m-Toluyl-ethylidene-hydrazinocarbonyl)-phenyl]-isonicotinamide]	–	41.6%
O=C(Nc1ccc(Cl)cc1C(=O)N/N=C/c1ccc(O)cc1)c1cccc(CN(CCO)CCO)c1 [Compound 411, 3-{[Bis-(2-hydroxy-ethyl)-amino]-methyl}-N-[4-chloro-2-(4-hydroxy-benzylidene-hydrazinocarbonyl)-phenyl]-benzamide]	10.1 µM	–
O=C(Nc1ccccc1C(=O)N/N=C/c1ccc(F)cc1)c1ccccc1F [Compound 38, 2-Fluoro-N-[2-(4-fluoro-benzylidene-hydrazinocarbonyl)-phenyl]-benzamide]	5.64 µM	–
Cc1ccc(/C=N/NC(=O)c2cc(Br)ccc2NC(=O)c2ccc(CN3CCN(c4ccccn4)CC3)cc2)cc1C [Compound 772, N-[4-Bromo-2-(3,4-dimethyl-benzylidene-hydrazinocarbonyl)-phenyl]-4-(4-pyridin-2-yl-piperazin-1-ylmethyl)-benzamide]	–	67.7%
Cc1ccc(/C=N/NC(=O)c2cc(Br)ccc2NC(=O)c2ccno2)cc1C [Compound 512, Isoxazole-5-carboxylic acid [4-bromo-2-(3,4-dimethyl-benzylidene-hydrazinocarbonyl)-phenyl]-amide]	28.3 µM	–

Next, values leading:

IC50	inhibition at 300 µM	SMILES
5.51 µM	–	COc1ccc(C(=O)Nc2ccc(C)cc2C(=O)N/N=C/c2ccc(C)cc2)cc1OC [Compound 149, 3,4-Dimethoxy-N-[4-methyl-2-(4-methyl-benzylidene-hydrazinocarbonyl)-phenyl]-benzamide]
< 1 µM	–	COc1ccc(/C=N/NC(=O)c2c(C)csc2NC(=O)c2cccc(CN(CC(C)O)CC(C)O)c2)cc1 (stereo not drawn) [Compound 852, 3-{[Bis-(2-hydroxy-propyl)-amino]-methyl}-N-[3-(4-methoxy-benzylidene-hydrazinocarbonyl)-4-methyl-thiophen-2-yl]-benzamide; hydrochloride]
3.54 µM	–	O=C(Nc1ccc(Br)cc1C(=O)N/N=C/c1cccc(F)c1)c1ccc(CSc2ccncc2)cc1 [Compound 255, N-[4-Bromo-2-(3-fluoro-benzylidene-hydrazinocarbonyl)-phenyl]-4-(pyridin-4-ylsulfanylmethyl)-benzamide]
–	58.5%	CCOCCN(CCOCC)Cc1ccc(C(=O)Nc2ccc(Br)cc2C(=O)N/N=C/c2cccc(OC)c2)cc1 [Compound 740, 4-{[Bis-(2-ethoxy-ethyl)-amino]-methyl}-N-[4-bromo-2-(3-methoxy-benzylidene-hydrazinocarbonyl)-phenyl]-benzamide]
14.4 µM	–	O=C(Nc1ccc(Br)cc1C(=O)N/N=C/c1ccc(F)cc1)c1ccc(CN2CCC(CCO)CC2)cc1 [Compound 743, N-[4-Bromo-2-(4-fluoro-benzylidene-hydrazinocarbonyl)-phenyl]-4-[4-(2-hydroxy-ethyl)-piperidin-1-ylmethyl]-benzamide]
15.8 µM	–	COc1cccc(/C=N/NC(=O)c2cc(Br)ccc2NC(=O)c2ccc(CN3CCC(O)CC3)cc2)c1 [Compound 331, N-[4-Bromo-2-(3-methoxy-benzylidene-hydrazinocarbonyl)-phenyl]-4-(4-hydroxy-piperidin-1-ylmethyl)-benzamide]
9.33 µM	–	Cc1ccc(/C=N/NC(=O)c2c(C)csc2NC(=O)c2cccc(CN(CC(C)O)CC(C)O)c2)cc1 (stereo not drawn) [Compound 588, 3-{[Bis-(2-hydroxy-propyl)-amino]-methyl}-N-[4-methyl-3-(4-methyl-benzylidene-hydrazinocarbonyl)-thiophen-2-yl]-benzamide]
